melting point: 246 to 247 °C
Structure (SMILES): CCC(C)C(CC)C1=NC2=C(c3ccc(Cl)cc3Cl)N=NC(=O)C2=N1 (stereo not shown) [Example 1, 4-(2,4-dichlorophenyl)-2-ethyl-1-(1-ethyl)propyl-imidazo[4,5-d]pyridazin-7-one]
